Read-outs that look alike come from different tables or passages of the source. Positions of bridges follow the written chain, without caps; N, C: chain ends. Non-standard residues stand in square brackets, D forms with d. Residues, ends and D or L forms follow the SMILES beside them. ξ: configuration not given here. Bta = N[C@@H](Cc1csc2ccccc12)C(=O)O; Hyp = O=C(O)[C@@H]1C[C@@H](O)CN1; dNMeNle = CCCC[C@@H](NC)C(=O)O; NMeNle = CCCC[C@H](NC)C(=O)O; NMeA = CN[C@@H](C)C(=O)O; dDap = NC[C@@H](N)C(=O)O; Dab = NCC[C@H](N)C(=O)O; Dap = NC[C@H](N)C(=O)O; ξP = O=C(O)C1CCCN1
Assays:
Hu PD-L1/PD-1 = Hu PD-L1/PD-1 (Homo sapiens, UniProt Q9NZQ7); experiment: Cell binding assay Hu PD-L1/PD-1 (Tables 11-13, cell line not given); assay type: cell-based; settings: Table 13, Compound No. 71 series
Sequence of Hu PD-L1/PD-1 (Q9NZQ7 19-290): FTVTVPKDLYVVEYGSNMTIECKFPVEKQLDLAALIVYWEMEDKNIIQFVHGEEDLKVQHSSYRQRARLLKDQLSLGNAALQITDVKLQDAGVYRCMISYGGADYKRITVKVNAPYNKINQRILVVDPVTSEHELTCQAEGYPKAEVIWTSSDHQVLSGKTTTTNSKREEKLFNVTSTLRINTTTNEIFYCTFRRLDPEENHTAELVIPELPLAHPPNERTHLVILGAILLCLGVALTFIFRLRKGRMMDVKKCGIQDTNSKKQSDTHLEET
Procedure: The ability of the macrocyclic peptides of the present disclosure to bind to Jurkat, mouse B cell line (LK35.2), and a human lung adenocarcinoma cell line (L2987) was investigated. Jurkat-PD-1 Cell Binding Assay. Phycoerythrin (PE) was covalently linked to the Ig epitope tag of human PD-L1-Ig and fluorescently-labeled PD-L1-Ig was used for binding studies with a Jurkat cell line over-expressing human PD-1 (Jurkat-PD-1). […] Cells were washed 3× in dPBS. Cells were resuspended in 200 μl of dPBS and binding was measured by flow cytometry. LK35.2-hPD-L1 Cell Binding Assay. Phycoerythrin (PE) was covalently linked to the Ig eptitope tag of human PD-1-Ig and fluorescently-labeled PD-1-Ig was used for binding studies with a mouse B cell line (LK35.2) stably over-expressing human PD-L1 (LK35.2-hPD-L1). Briefly, […] LK35.2-hPD-L1 cells were pre-incubated with inhibitor for 15 m in a 30 μl volume of RPMI supplemented with 2% fetal calf serum. 20 μl of PE-labeled PD-1-Ig (2 nM final), diluted in RPMI supplemented with 2% fetal calf serum, was dispensed on top of cells and inhibitor and binding was allowed to take place for 1 h at room temperature. Cells were washed 3× in dPBS. Cells were resuspended in 200 μl of dPBS and binding was measured by flow cytometry. L2987 Cellomics Cell Binding Assay. Phycoerythrin (PE) was covalently linked to the Ig eptitope tag of human PD-1-Ig and fluorescently-labeled PD-1-Ig was used for binding studies with a human lung adenocarcinoma cell line (L2987) which naturally expresses PD-L1. […] The following day, inhibitors were diluted in serum-free DMEM and 25 μl was dispensed on top of cells. […] Samples were incubated for 1 h at 37° C. followed by 2 washes in dPBS and fixation for 30 m with 4% paraformaldehyde. Samples were further washed 2× in dPBS. Hoechst (final 1 μg/ml) was added to final wash to stain nuclei. Plates were processed using a Cellomics […]®.

Human PD-L1/PD-1 = target: T1, Human PD-L1/PD-1 (Homo sapiens, UniProt Q9NZQ7); experiment: HTRF PD-1-Ig/PD-L1-His binding assay (human PD-L1)
T1 construct: made in house; host or cells: HEK293T
T1 sequence (Q9NZQ7 with tags, fused parts or gaps): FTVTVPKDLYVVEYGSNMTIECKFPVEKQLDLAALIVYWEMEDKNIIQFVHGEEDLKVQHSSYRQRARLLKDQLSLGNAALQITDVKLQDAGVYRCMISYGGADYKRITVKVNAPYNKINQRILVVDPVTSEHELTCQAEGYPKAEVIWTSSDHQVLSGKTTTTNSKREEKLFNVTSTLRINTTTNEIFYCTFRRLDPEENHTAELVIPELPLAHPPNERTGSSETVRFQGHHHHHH
Outline: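 Readout: time-resolved FRET between Eu cryptate-labeled anti-Ig (1 nM final) and APC-labeled anti-His (20 nM final) antibodies. These detect interaction of Fc-fused PD-1 with His-tagged human PD-L1 in dPBS containing 0.1% BSA and 0.05% Tween-20.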

[1] = target: T2, LK35.2-hPD-L1 cells / PE-labeled PD-1-Ig (Homo sapiens, UniProt Q9NZQ7); experiment: LK35.2-hPD-L1 cell binding high-content screening assay; assay type: cell-based; settings: cell line of CBA not given (LK35.2-hPD-L1 or 293T-hPD-L1)
T2 construct: expressed in transfected cells; host or cells: LK35.2 mouse B cell line
T2 sequence (Q9NZQ7 19-290): as the sequence (Q9NZQ7 19-290) above
Outline: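 Using overnight-cultured LK35.2-hPD-L1 mouse B cells, compound was co-incubated with phycoerythrin-tagged human PD-1-Ig (final 1 nM) at 37 °C for one hour. Unbound label was removed by triple dPBS washing prior to high-content image acquisition and analysis.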

CMV-specific T cells = CMV-specific T cells (Homo sapiens, UniProt Q9NZQ7); experiment: CMV-specific T cell function assay (IFNγ secretion, ELISA); assay type: cell-based; settings: read-out: CMV Recall EC50 value
Sequence of CMV-specific T cells (Q9NZQ7 19-290): as above
Procedure: CMV-specific T Cell Function Assay. […] AIM-V medium (Life Technologies, Grand Island, N.Y.) supplemented with 10% heat-inactivated fetal bovine serum (FBS, Sigma, St Louis, Mo.) was used at a total volume of 200 µL/well in triplicate. The cells were cultured for 4 days at 37° C., 5% CO2 at which time culture supernatant was harvested for determination of secreted IFNγ by ELISA (OptEIA hIFNγ ELISA Kit, BD Biosciences, San Jose, Calif.).

[2] = Table 9, Compound No. 71 variant macrocyclic peptides, read-out: HTRF Human PD-L1/PD-1 Binding Assay IC50

SMILES	IC50 (Hu PD-L1/PD-1) [nM]	IC50 (Human PD-L1/PD-1; [2]) [nM]	EC50 (CMV-specific T cells) [nM]	further results
CCCC[C@H]1C(=O)N(C)[C@@H](C)C(=O)N[C@@H](CC(=O)O)C(=O)N[C@@H](C(C)C)C(=O)N(C)[C@@H](Cc2ccccc2)C(=O)N[C@@H](Cc2ccc(O)cc2)C(=O)N(C)CC(=O)N[C@@H](Cc2c[nH]c3ccccc23)C(=O)N[C@@H](Cc2ccc(O)cc2)C(=O)N[C@@H](CC(C)C)C(=O)N[C@H](C(=O)NCC(N)=O)CSCC(=O)N[C@@H](Cc2ccccc2)C(=O)N(C)[C@@H](Cc2ccccc2)C(=O)N1C [Compound No. 77] (HELM PEPTIDE1{[O=C(C[*:3])[*:2]].F.[meF].[CCCC[C@@H](C(=O)[*:2])N(C)[*:1]].[meA].D.V.[meF].Y.[Sar].W.Y.L.C.G.[am]}$PEPTIDE1,PEPTIDE1,1:R3-14:R3$$$V2.0)	16	24		
CCCC[C@H]1C(=O)N(C)CC(=O)N[C@@H](CC(=O)O)C(=O)N[C@@H](C(C)C)C(=O)N(C)[C@@H](C)C(=O)N[C@@H](Cc2ccc(O)cc2)C(=O)N(C)CC(=O)N[C@@H](Cc2c[nH]c3ccccc23)C(=O)N[C@@H](Cc2ccc(O)cc2)C(=O)N[C@@H](CC(C)C)C(=O)N[C@H](C(=O)NCC(N)=O)CSCC(=O)N[C@@H](Cc2ccccc2)C(=O)N(C)[C@@H](Cc2ccccc2)C(=O)N1C [Compound No. 81] (HELM PEPTIDE1{[O=C(C[*:3])[*:2]].F.[meF].[CCCC[C@@H](C(=O)[*:2])N(C)[*:1]].[Sar].D.V.[meA].Y.[Sar].W.Y.L.C.G.[am]}$PEPTIDE1,PEPTIDE1,1:R3-14:R3$$$V2.0)	> 10000	> 10000		

Further lines, with some results ahead:

IC50 (Hu PD-L1/PD-1) [nM]	IC50 (Human PD-L1/PD-1; [2]) [nM]	EC50 (CMV-specific T cells) [nM]	SMILES	further results
73	25		CCCC[C@H]1C(=O)N(C)CC(=O)N[C@@H](CC(=O)O)C(=O)N[C@@H](C(C)C)C(=O)N(C)[C@@H](Cc2ccccc2)C(=O)N[C@@H](Cc2ccc(O)cc2)C(=O)N(C)CC(=O)N[C@@H](Cc2c[nH]c3ccccc23)C(=O)N[C@@H](Cc2ccc(O)cc2)C(=O)N[C@@H](C)C(=O)N[C@H](C(=O)NCC(N)=O)CSCC(=O)N[C@@H](Cc2ccccc2)C(=O)N(C)[C@@H](Cc2ccccc2)C(=O)N1C [Compound No. 87] (HELM PEPTIDE1{[O=C(C[*:3])[*:2]].F.[meF].[CCCC[C@@H](C(=O)[*:2])N(C)[*:1]].[Sar].D.V.[meF].Y.[Sar].W.Y.A.C.G.[am]}$PEPTIDE1,PEPTIDE1,1:R3-14:R3$$$V2.0)	
		2.93	CCCC[C@H]1C(=O)N(C)[C@@H](CCCC)C(=O)N[C@@H](CN)C(=O)N[C@H](C(=O)NCC(N)=O)CSCC(=O)N[C@@H](Cc2ccc(O)cc2)C(=O)N(C)[C@@H](C)C(=O)N[C@@H](CC(=O)O)C(=O)N2CCC[C@H]2C(=O)N[C@@H](CN)C(=O)N[C@@H](CC(C)C)C(=O)N2C[C@H](O)C[C@H]2C(=O)N[C@@H](Cc2c[nH]c3ccccc23)C(=O)N[C@@H](CO)C(=O)N[C@@H](Cc2csc3ccccc23)C(=O)N1C [Example 1163] ({CH2CO}-Y[NMeA]DP[Dap]L[Hyp]WS[Bta][NMeNle][NMeNle][Dap]CG-NH2; thioether N-14)	IC50 (Human PD-L1/PD-1; read-out: HTRF IC50 value): 6.24 nM; IC50 ([1]; read-out: CBA IC50 value): 4.04 nM
		> 2500	CCCC[C@@H]1C(=O)N(C)[C@H](CCCC)C(=O)N[C@@H](C)C(=O)N[C@@H](C(=O)NCC(N)=O)CSCC(=O)N[C@@H](Cc2ccc(O)cc2)C(=O)N2CCCC2C(=O)N[C@H](CC(=O)O)C(=O)N2CCC[C@H]2C(=O)N[C@H](CN)C(=O)N[C@@H](CC(=O)O)C(=O)N2CCCC2C(=O)N[C@H](Cc2c[nH]c3ccccc23)C(=O)N[C@@H](CCN)C(=O)N[C@@H](Cc2c[nH]c3ccccc23)C(=O)N1C (stereo partly drawn) [Example 1210] ({CH2CO}-Y[ξP][dD]P[dDap]D[ξP][dW][Dab]W[dNMeNle][dNMeNle]A[dC]G-NH2; thioether N-14)	IC50 (Human PD-L1/PD-1; cluster symbol, read-out: HTRF IC50 cluster): > 30.5 nM; IC50 ([1]; cluster symbol, read-out: CBA IC50 cluster): > 74.3 nM

Reference: patent US9850283B2, “Macrocyclic inhibitors of the PD-1/PD-L1 and CD80(B7-1)/PD-L1 protein/protein interactions” (BRISTOL-MYERS SQUIBB COMPANY, priority 2013, dated 2017)
